In US20220151962A1, “NOVEL INHIBITORS OF HISTONE DEACETYLASE 10” (Deutsches Krebsforschungszentrum, priority 2019, published 2022):

Legend:
HDAC8 = biological target: T1, HDAC8 (Homo sapiens, UniProt Q9BY41); assay: HDAC-Glo I/II assay, HDAC8; assay type: biochemical; set-up: purchased BPS Bioscience 50008; settings: recombinant human HDAC8, HDAC-Glo; for IC50: read-out: pIC50 HDAC8 Glo (converted)
T1 sequence (Q9BY41 1-377): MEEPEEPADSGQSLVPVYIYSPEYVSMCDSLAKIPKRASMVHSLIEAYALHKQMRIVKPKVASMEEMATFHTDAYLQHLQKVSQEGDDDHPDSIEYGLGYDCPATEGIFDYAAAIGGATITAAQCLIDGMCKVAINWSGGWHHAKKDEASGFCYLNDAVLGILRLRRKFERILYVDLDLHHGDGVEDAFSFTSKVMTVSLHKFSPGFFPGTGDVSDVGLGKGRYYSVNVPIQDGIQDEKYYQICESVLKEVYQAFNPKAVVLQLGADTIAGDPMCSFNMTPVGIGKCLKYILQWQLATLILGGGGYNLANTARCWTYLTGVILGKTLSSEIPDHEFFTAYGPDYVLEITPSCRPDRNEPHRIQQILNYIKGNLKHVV

HDAC1 = biological target: T2, HDAC1 (Homo sapiens, UniProt Q13547); assay: HDAC-Glo I/II assay, HDAC1; assay type: biochemical; settings: recombinant human HDAC1, HDAC-Glo; for IC50: read-out: pIC50 HDAC1 Glo (converted)
T2 construct: purchased BPS Bioscience 50051

HDAC6 = biological target: T3, HDAC6 (Homo sapiens, UniProt Q9UBN7); assay: HDAC-Glo I/II assay, HDAC6; assay type: biochemical; settings: recombinant human HDAC6, HDAC-Glo; read-out: pIC50 HDAC6 Glo (converted)
T3 construct: purchased BPS Bioscience 50006
T3 sequence (Q9UBN7 1-1215): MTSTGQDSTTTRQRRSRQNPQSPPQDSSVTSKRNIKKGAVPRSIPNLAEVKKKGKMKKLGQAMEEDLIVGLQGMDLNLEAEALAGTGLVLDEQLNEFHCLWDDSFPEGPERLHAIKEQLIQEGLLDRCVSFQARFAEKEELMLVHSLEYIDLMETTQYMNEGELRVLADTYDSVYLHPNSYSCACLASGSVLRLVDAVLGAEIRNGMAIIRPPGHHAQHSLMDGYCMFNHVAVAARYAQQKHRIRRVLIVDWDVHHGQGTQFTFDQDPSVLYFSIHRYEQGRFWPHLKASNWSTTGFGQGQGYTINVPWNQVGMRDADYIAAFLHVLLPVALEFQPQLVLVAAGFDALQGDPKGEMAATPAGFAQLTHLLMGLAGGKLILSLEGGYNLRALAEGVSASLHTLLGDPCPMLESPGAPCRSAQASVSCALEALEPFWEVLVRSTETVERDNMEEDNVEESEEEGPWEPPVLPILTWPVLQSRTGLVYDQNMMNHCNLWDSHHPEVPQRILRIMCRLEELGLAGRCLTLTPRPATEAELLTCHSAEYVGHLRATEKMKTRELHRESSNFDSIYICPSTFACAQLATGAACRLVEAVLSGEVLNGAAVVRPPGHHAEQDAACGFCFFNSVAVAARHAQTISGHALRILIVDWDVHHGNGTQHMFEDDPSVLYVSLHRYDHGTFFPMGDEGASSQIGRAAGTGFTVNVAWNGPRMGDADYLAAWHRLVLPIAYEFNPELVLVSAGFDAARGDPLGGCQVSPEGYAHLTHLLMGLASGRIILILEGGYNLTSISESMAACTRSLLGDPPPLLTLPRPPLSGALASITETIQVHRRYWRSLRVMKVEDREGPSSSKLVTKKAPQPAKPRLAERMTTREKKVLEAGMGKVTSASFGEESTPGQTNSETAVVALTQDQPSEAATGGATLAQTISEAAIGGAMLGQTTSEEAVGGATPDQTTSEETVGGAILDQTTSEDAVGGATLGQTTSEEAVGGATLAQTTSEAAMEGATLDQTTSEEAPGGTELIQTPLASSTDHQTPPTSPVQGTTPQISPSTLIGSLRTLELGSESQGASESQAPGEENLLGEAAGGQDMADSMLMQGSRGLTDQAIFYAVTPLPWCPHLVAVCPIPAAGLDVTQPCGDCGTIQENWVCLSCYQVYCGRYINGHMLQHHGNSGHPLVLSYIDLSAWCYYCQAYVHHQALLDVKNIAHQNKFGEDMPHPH

HDAC2 = biological target: T4, HDAC2 (Homo sapiens, UniProt Q92769); assay: HDAC-Glo I/II assay, HDAC2; assay type: biochemical; settings: recombinant human HDAC2, HDAC-Glo; for IC50: read-out: pIC50 HDAC2 Glo (converted)
T4 construct: purchased BPS Bioscience 50002

TwinStrep-GST-HDAC10 = biological target: T5, TwinStrep-GST-HDAC10 (Homo sapiens, UniProt Q969S8); assay: HDAC10 TR-FRET assay (Tubastatin-AF647-Tracer displacement); assay type: binding; settings: TR-FRET, 60 min at rt; for IC50: read-out: pIC50 HDAC10 FRET (converted)
T5 construct: made in house; host or cells: Sf21 insect cells (baculovirus, pFastBac1)
T5 sequence (Q969S8 1-669): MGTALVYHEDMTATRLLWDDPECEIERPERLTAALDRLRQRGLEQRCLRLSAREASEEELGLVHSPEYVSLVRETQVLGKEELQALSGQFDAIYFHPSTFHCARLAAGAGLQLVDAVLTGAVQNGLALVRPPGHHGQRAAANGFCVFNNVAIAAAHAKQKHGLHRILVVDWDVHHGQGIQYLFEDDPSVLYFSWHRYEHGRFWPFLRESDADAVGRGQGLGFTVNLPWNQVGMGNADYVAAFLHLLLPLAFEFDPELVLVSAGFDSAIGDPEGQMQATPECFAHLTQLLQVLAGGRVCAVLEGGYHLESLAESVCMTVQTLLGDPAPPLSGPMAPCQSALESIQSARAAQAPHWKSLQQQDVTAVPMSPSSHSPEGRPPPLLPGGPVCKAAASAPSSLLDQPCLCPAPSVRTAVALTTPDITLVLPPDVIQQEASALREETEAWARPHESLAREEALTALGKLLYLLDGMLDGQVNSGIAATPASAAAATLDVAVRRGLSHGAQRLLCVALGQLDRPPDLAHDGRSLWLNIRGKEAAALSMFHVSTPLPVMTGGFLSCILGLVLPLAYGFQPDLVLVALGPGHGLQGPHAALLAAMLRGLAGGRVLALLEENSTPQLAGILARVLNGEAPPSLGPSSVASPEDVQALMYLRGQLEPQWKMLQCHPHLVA

HDAC3/NcoR2 complex = biological target: T6, HDAC3/NcoR2 complex (Homo sapiens, UniProt O15379); assay: HDAC-Glo I/II assay, HDAC3/NcoR2 complex; assay type: biochemical; settings: recombinant human HDAC3/NcoR2 complex; for IC50: read-out: pIC50 HDAC3 Glo (converted)
T6 construct: purchased BPS Bioscience 50003
T6 sequence (O15379 whole entry): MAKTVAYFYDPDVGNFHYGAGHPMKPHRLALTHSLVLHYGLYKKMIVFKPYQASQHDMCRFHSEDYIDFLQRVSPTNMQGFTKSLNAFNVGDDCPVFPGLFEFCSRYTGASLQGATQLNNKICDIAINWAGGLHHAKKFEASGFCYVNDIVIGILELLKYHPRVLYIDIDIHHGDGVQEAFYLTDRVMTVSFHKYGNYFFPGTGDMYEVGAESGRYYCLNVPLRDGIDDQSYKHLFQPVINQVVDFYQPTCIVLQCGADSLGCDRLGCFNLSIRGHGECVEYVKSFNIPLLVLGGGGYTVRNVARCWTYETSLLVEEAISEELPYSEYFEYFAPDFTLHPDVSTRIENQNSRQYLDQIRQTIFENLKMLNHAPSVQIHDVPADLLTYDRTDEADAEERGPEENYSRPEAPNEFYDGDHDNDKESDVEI
T6 sequence (Q9Y618 395-489 partner limits assumed): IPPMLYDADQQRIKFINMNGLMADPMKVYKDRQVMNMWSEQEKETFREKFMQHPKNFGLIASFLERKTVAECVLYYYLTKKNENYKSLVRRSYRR

T2 sequence (Q13547 whole entry): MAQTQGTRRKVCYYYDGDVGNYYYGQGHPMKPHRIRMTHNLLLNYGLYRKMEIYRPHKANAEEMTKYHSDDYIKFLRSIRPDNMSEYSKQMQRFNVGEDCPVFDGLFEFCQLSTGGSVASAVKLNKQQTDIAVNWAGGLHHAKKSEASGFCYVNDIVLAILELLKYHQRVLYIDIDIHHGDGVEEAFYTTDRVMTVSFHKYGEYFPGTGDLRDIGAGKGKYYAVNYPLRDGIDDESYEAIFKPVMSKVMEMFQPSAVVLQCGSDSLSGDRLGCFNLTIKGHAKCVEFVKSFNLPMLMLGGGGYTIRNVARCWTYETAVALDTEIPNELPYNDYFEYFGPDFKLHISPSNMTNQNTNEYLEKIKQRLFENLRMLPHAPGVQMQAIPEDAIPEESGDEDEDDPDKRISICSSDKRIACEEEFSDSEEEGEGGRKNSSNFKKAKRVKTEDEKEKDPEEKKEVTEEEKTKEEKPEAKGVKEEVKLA
T4 sequence (Q92769 whole entry): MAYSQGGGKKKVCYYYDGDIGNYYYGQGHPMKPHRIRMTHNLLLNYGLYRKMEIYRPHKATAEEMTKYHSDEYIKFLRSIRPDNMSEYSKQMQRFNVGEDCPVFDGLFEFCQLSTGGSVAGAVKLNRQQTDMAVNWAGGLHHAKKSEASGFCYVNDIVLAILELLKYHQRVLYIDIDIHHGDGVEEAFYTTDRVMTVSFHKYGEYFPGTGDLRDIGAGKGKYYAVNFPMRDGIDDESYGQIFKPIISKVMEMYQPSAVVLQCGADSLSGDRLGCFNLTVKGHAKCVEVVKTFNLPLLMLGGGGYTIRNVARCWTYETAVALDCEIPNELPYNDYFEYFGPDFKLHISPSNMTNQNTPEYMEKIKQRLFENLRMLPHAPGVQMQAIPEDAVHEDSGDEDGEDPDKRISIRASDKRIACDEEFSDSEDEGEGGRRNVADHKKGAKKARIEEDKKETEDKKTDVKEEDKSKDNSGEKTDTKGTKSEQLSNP

Compound	IC50 (HDAC8)	IC50 (HDAC1)	IC50 (HDAC6)	IC50 (HDAC2)	IC50 (TwinStrep-GST-HDAC10)	IC50 (HDAC3/NcoR2 complex)	pIC50 HDAC8 Glo (HDAC8)	pIC50 HDAC1 Glo (HDAC1)	pIC50 HDAC2 Glo (HDAC2)	pIC50 HDAC10 FRET (TwinStrep-GST-HDAC10)	pIC50 HDAC3 Glo (HDAC3/NcoR2 complex)
CN(CCCC(=O)NO)CCNS(=O)(=O)c1ccccc1 [DKFZ-758, N-Hydroxy-4-(methyl(2-(phenylsulfonamido)ethyl)amino)butanamide]	6.31 µM	25.1 µM	6.31 µM	> 100 µM	0.0316 µM	> 100 µM	–	–	–	–	–
CN(CCCC(=O)NO)CCNC(=O)c1ccc(N)cc1 [DKFZ-752, 4-Amino-N-(2-((4-(hydroxyamino)-4-oxobutyl)(methyl)amino)ethyl)benzamide]	20 µM	15.8 µM	3.98 µM	> 100 µM	0.0158 µM	> 100 µM	–	–	–	–	–
CCN(CCCC(=O)NO)CCC(=O)Nc1ccccc1 [DKFZ-714, 4-(Ethyl(3-oxo-3-(phenylamino)propyl)amino)-N-hydroxybutanamide]	5.01 µM	50.1 µM	6.31 µM	> 200 µM	–	~158 µM	–	–	–	–	–
CN(CCCC(=O)NO)CC(=O)Nc1ccccc1 [DKFZ-772, N-Hydroxy-4-(methyl(2-oxo-2-(phenylamino)ethyl)amino)butanamide]	2.51 µM	20 µM	–	31.6 µM	–	> 100 µM	–	–	–	–	–
CN(CCCC(=O)NO)CCNC(=O)c1ccc(O)c2ccccc12 [DKFZ-776, 4-Hydroxy-N-(2-((4-(hydroxyamino)-4-oxobutyl)(methyl)amino)ethyl)-1-naphthamide]	2 µM	7.94 µM	0.631 µM	15.8 µM	0.00501 µM	> 100 µM	–	–	–	–	–
CN(CCCC(=O)NO)CCNC(=O)c1ccccc1O [DKFZ-755, 2-Hydroxy-N-(2-((4-(hydroxyamino)-4-oxobutyl)(methyl)amino)ethyl)benzamide]	63.1 µM	63.1 µM	12.6 µM	> 100 µM	0.0316 µM	> 100 µM	–	–	–	–	–
Cc1[nH]c2ccccc2c1CC(=O)NCCN(C)CCCC(=O)NO [DKFZ-749, N-Hydroxy-4-(methyl(2-(2-(2-methyl-1H-indol-3-yl)acetamido)ethyl)amino)butanamide]	2.51 µM	10 µM	3.16 µM	> 100 µM	0.0794 µM	> 100 µM	–	–	–	–	–
CN(CCCC(=O)NO)CCNC(=O)c1cccc(N)c1 [DKFZ-747, 3-Amino-N-(2-((4-(hydroxyamino)-4-oxobutyl)(methyl)amino)ethyl)benzamide]	12.6 µM	25.1 µM	6.31 µM	> 100 µM	0.0398 µM	> 100 µM	–	–	–	–	–
CN(CCCC(=O)NO)CCNC(=O)c1ccc(-c2ccccc2)cc1 [DKFZ-746, N-(2-((4-(Hydroxyamino)-4-oxobutyl)(methyl)amino)ethyl)-[1,1′-biphenyl]-4-carboxamide]	5.01 µM	2.51 µM	3.16 µM	~39.8 µM	0.0251 µM	~31.6 µM	–	–	–	–	–
CN(CCCC(=O)NO)CCNC(=O)c1ccccc1 [DKFZ-728, N-(2-((4-(Hydroxyamino)-4-oxobutyl)(methyl)amino)ethyl)benzamide]	15.8 µM	–	–	50.1 µM	–	> 100 µM	–	–	–	–	–
CN(CCCC(=O)NO)CCNC(=O)c1ccc2ccccc2c1 [DKFZ-769, N-(2-((4-(Hydroxyamino)-4-oxobutyl)(methyl)amino)ethyl)-2-naphthamide]	1.58 µM	2.51 µM	1.26 µM	5.01 µM	0.00501 µM	~39.8 µM	–	–	–	–	–
CN(CCCNC(=O)c1ccccc1)CCCC(=O)NO [DKFZ-806, N-(3-((4-(Hydroxyamino)-4-oxobutyl)(methyl)amino)propyl)benzamide]	25.1 µM	50.1 µM	25.1 µM	79.4 µM	0.02 µM	> 100 µM	–	–	–	–	–
CN(CCCC(=O)NO)CCNC(=O)c1ccc2cn[nH]c2c1 [DKFZ-754, N-(2-((4-(Hydroxyamino)-4-oxobutyl)(methyl)amino)ethyl)-1H-indazole-6-carboxamide]	12.6 µM	7.94 µM	3.16 µM	> 100 µM	0.00794 µM	> 100 µM	–	–	–	–	–
Cc1[nH]c2ccccc2c1C(=O)NCCN(C)CCCC(=O)NO [DKFZ-756, N-(2-((4-(Hydroxyamino)-4-oxobutyl)(methyl)amino)ethyl)-2-methyl-1H-indole-3-carboxamide]	5.01 µM	7.94 µM	1.58 µM	> 100 µM	0.02 µM	~79.4 µM	–	–	–	–	–
CN(CCCC(=O)NO)CCCc1nc2ccccc2[nH]1 [DKFZ-805, 4-((3-(Benzimidazol-2-yl)propyl)(methyl)amino)-N-hydroxybutanamide]	10 µM	~39.8 µM	12.6 µM	50.1 µM	0.00794 µM	> 100 µM	–	–	–	–	–
CN(CCCC(=O)NO)CCC(=O)Nc1ccccc1 [DKFZ-711]	3.98 µM	–	–	–	–	79.4 µM	–	–	–	–	–
(1r,3r)-N-Hydroxy-3-((3-oxo-3-(phenylamino)propyl)amino)cyclobutanecarboxamide [DKFZ-759]	–	–	–	–	–	–	4.9	4.4	<4.0	6.3	<4.0
(1s,3s)-N-Hydroxy-3-((3-oxo-3-(phenylamino)propyl)amino)cyclobutanecarboxamide [DKFZ-767]	–	–	–	–	–	–	5.1	4.9	4.6	6.9	~4.0
